This is an account of results in patent US20040091479A1, “T-cell epitope of the papillomavirus l1 and e7 protein and use thereof in diagnostics and therapy” (priority 2000, published 2004).

Assay [1] has as its system autologous peptide-loaded BLCL. The assay is described as follows: Cytotoxicity test (chromium release assay) of HPV18 E786-94-specific T cells. The settings on record: effector to target ratio of 30:1, FIG. 17 bottom. It is filed as cell-based, human. As to the method: The predicted peptides were synthesized using standard methods (F moc method). […] For this, 1×10^5 PBMC derived from healthy, HLA-A2-positive donors were sown, in 100 μl of medium (RPMI 1640, 10% heat-inactivated AB plasma), in each well of a 96-well plate. 20 μg of peptide/ml were added to the culture medium. The cells were incubated at 37° C. and restimulated once per week with irradiated peptide-loaded autologous PBMC. The stimulator PBMC were incubated for 4 hours in medium containing 20 μg of peptide/ml. After the irradiation, they were diluted down to 1×10^4/100 μl with medium and added to the peptide-stimulated PBMC. For this, half the medium was aspirated from each well and 100 μl of the stimulator PBMC suspension were added. 10 U of IL-2/ml and 10 U of IL-7/ml were added from the 3rd stimulation onwards. From the 5th stimulation onwards, restimulation was carried out in the same manner using peptide-loaded autologous B lymphoblast cell lines (BLCL).
The cytotoxicity of HPV18 E786-94-specific T cells was determined in a chromium release assay. Autologous BLCL were used as the target cells. In each case, 5×10^5 cells were taken up in 100 μl of medium (RPMI 1640, 10% FCS) and treated with 20 μl of ^51chromium (NEN). For loading the BLCL with peptide, 50 μg of the corresponding peptide were added/ml. After that, the cells were incubated at room temperature for 2 hours while being carefully resuspended every 20-30 min. The cells were then washed 3 times with 5 ml of medium. For the sedimenting, the cells were in each case centrifuged at 1500 rpm for 5 min and then carefully resuspended. […]
The assay samples were incubated for 4 hours at 37° C., 98% atmospheric humidity and 5% CO2. […] On the following day, 150 μl of Microscint 40 scintillation fluid (Canberra-Packard, Deieich) were added and the numbers of distintegrations per minute in the individual assay samples were measured in the scintillation counter (Topcount, Canberra-Packard, Dreieich).
The specific lysis was calculated using the following formula: […]

In assay [2] the test system is T cell line generated with HeLa CD80/HLA-A2 transfectants (H7.1-A2). Kind of assay: IFN-γ ELISpot of H7.1-A2-specific T cell line against peptide-loaded autologous PBMC. It is filed as cell-based, human. The settings on record: H7.1-A2-induced T cell line, FIG. 17 top.
The test system of assay [3] is CVLP-stimulated CD4-positive T cells. Kind of assay: Restimulating HPV18 CVLP-stimulated T cells with BLCL presenting pools or Q30 (example 15). In kind it is cell-based, human. As to the method: (§1) In analogy with example 6, human T cells derived from a non-HLA-typed blood donor were stimulated, at 37° C., with HPV18L1ΔCDIE71-53DI CVLPs and HPV18L1ΔCDIE71-60DI CVLPs and harvested.
The T cells were then restimulated, at 37° C. and in 100 μl of medium, with the peptide pools from example 6 and 10^5 antigen-presenting cells (donor-identical BLCL) in the presence of 10 IU of IL2/ml. Use was made, in this connection, of quantities of the peptide pools which were such that 1 μg/ml was added in the case of each individual peptide. Cells which were only incubated with buffer served as the negative control while cells which were incubated with the HPV18 L1 or E7 peptide pool served as positive controls (upper part of FIG. 14). In the case of the lower part of FIG. 14, the T cells were restimulated, at 37° C. and in 100 μl of medium, with peptide pools F and 4 and with 1 μg of peptide Q30/ml and 10^5 antigen-presenting cells (donor-identical BLCL) in the presence of 10 IU of IL2/ml.
1 μl of monensin was added after an hour. The cells were then incubated at 37° C. for a further 5 hours. After that, the cells were fixed and permeabilized and stained with α-human […], with α-human CD4/PerCP and with α-human IFNγ/FITC. The labeling of the cells was examined in a FACScan Calibur and the results of the measurements were analyzed using Cellquest software.

Assay [4] has as its system human T cells. Kind of assay: Summary of examples 3 to 18: epitopes recognized by human T cells. In kind it is cell-based. The settings on record: Table 4, HPV18 peptides, species human.
The test system of assay [5] is LKK cells. The assay is described as follows: 51Cr release: lysing HPV18 peptide-loaded LKK cells (example 17). It is filed as cell-based, murine. As to the method:
In analogy with example 4, RMA or LKK cells were radioactively labeled with ^51Cr and incubated with the peptides (Q43 and Q44 in the upper part of FIG. 16 and Q49 in the lower part of FIG. 16) which are plotted on the X axis. Cells without peptide served as negative controls. T cells which had previously been stimulated with the peptide pool were then added.
The lysis of the RMA cells or LKK cells by the T cells was measured by the release of the ^51Cr and calculated as described in example 4.

The test system of assay [6] is CVLP-stimulated CD8-positive T cells. Kind of assay: Restimulating HPV16 CVLP-stimulated T cells with P33-presenting BLCL (example 11). It is filed as cell-based, human. Here is the method: In analogy with example 6, human T cells derived from a non-HLA-typed blood donor were stimulated with HPV16L1ΔC*E71-55 CVLPs and harvested.
The T cells were then restimulated, at 37° C. and in 100 μl of medium, with 1 μg of peptide P33/ml and 10^5 antigen-presenting cells (donor-identical BLCL) in the presence of 10 IU of IL2/ml. Cells which were only incubated with buffer served as the negative control while cells which were incubated with HPV16 L1 peptide pool served as the positive control.
(§2) 1 μl of monensin was added after an hour. The cells were then incubated at 37° C. for a further 5 hours. After that, the cells were fixed and permeabilized and stained with α-human CD8/APC, with α-human CD4/PerCP and with α-human IFNγ/FITC. The labeling of the cells was examined in a FACScan Calibur and the results of the measurements were analyzed using Cellquest software.

In assay [7] the test system is P33-loaded RMA cells. The assay is described as follows: 51Cr release: lysing P33-loaded RMA cells. It is filed as cell-based, C57BL/6 mouse. Here is the method:
RMA cells were incubated at 37° C. for one hour with ^51Cr, washed three times with medium and divided into 2 aliquots. 10 μg of the P33 peptide/ml were added to one aliquot of the cells while the other aliquot served as the negative control in the absence of the peptide. In each case 2000 of the cells (=target cells) were then added to 40.000 T cells (=effector cells) in a total volume of 150 μl. The T cells had previously been stimulated for 5 weeks with a mixture composed of 43 peptides (peptides 1-43, in each case 1 μg/ml).
Assay mixtures for spontaneous and maximal lysis of the cells were set up in parallel. Target cells which were incubated with culture medium were used for the spontaneous lysis. For the maximal lysis, target cells were lysed by adding 0.5% Triton X100.
The assay mixtures were incubated at 37° C. for 5 h. 50 μl volumes of the supernatants from the assay mixtures were added to Luma plates and dried overnight at room temperature. On the following morning, the quantity of radioactive ^51Cr (counts) was determined using a Canberra-Packerd B Plate Counter and related to the maximally lysed cells in the Triton assay mixture. The % specific lysis was then determined using the formula:
x=100·(counts−spontaneous counts)/(maximal counts−spontaneous counts).

In assay [8] the test system is HPV18 CVLP-stimulated human T cells. The assay is described as follows: Restimulating HPV18 CVLP-stimulated T cells with BLCL presenting Q38, Q39, Q46 or Q47 (example 13). It is filed as cell-based. Here is the method: In analogy with example 6, human T cells (4×10^5) derived from a non-HLA-typed blood donor were stimulated with HPV18L1ΔCDIE71-53DI CVLPs and HPV18L1ΔCDIE71-60DI CVLPs and harvested.
The T cells were then restimulated, at 37° C. and in 100 μl of medium, with in each case 1 μg of peptide Q38, Q39, Q46 or Q47/ml and 10^5 antigen-presenting cells (donor-identical BLCL) in the presence of 10 IU of IL2/ml. Cells which were only incubated with buffer served as the negative control while cells which were incubated with the HPV18 L1 peptide pool or the E7 peptide pool served as positive controls.
as §2

In assay [9] the test system is CVLP-stimulated CD4-positive T cells. Kind of assay: Restimulating HPV18 CVLP-stimulated T cells with BLCL presenting HPV18 peptide pools (example 12). In kind it is cell-based, human. The note with it: peptide common to two reactive HPV18 pools; CD4/IFNγ. As to the method: as §1
The T cells were then restimulated, at 37° C. and in 100 μl of medium, with the HPV18 peptide pools from example 6 and 10^5 antigen-presenting cells (donor-identical BLCL) in the presence of 10 IU of IL2/ml. Use was made, in this connection, of quantities of the peptide pools which were such that 1 μg/ml was added in the case of each individual peptide. Cells which were only incubated with buffer served as the negative control while cells which were incubated with HPV18 L1 peptide pool served as the positive control.
as §2

Assay [10] deals with CVLP-stimulated human CD4-positive T cells. The assay is described as follows: Restimulating HPV18 CVLP-stimulated T cells with BLCL presenting HPV18 peptide pools (example 6). The settings on record: peptide common to two reactive HPV18 pools; CD4/IFNγ. In kind it is cell-based. As to the method:
Human T cells (4×10^5) from a non-HLA-typed blood donor were stimulated for 1 week with HPV18 L1ΔCDIE71-53DI CVLPs and HPV18 L1ΔACDIE71-60DI CVLPS, 800 U of human GM-CSF/ml and 500 U of human IL4/ml and also, for a further 5 weeks, with HPV18 L1ΔCDIE71-53DI CVLPs and HPV18 L1ΔCDIE71-6ODI CVLPs at 37° C., with the weekly addition of 1 μg of the CVLPs mixLure (ratio of the two constructs 1:1)/ml and 10^5 antigen-presenting cells (irradiated PMBC), and harvested.
The 20 mer peptides Q1 to 52 were assembled into peptide pools A to H and 1 to 7, respectively, in accordance with the matrix
The T cells were then restimulated, at 37° C. and in 100 μl of medium, with the peptide pools and 10^5 antigen-presenting cells (donor-identical BLCL) in the presence of 10 IU of IL2/ml. The quantities of the peptide pools which were used in this connection were such that. 1 μg/ml was added in the case of each individual peptide.
Cells which were only incubated with buffer served as the negative control while cells incubated with the HPV18 L1 peptide pool and the HPV18 E7 peptide pool, respectively, served as positive controls.
1 μl of monensin was added after an hour. The cells were then incubated at 37° C. for a further 5 hours. After that, the cells were fixed and permeabilized and stained with α-human CD8/APC, with α-human CD4/PerCP and with α-human IFNγ/FITC. The labeling of the cells was analyzed in a FACScan Calibur and the results of the measurements were analyzed using Cellquest software.

For “HPV16 E628-36: control peptide in the chromium release assay (TTIHDIILE; UniProt P03126 28-36, looked up, fragment)”, the specific lysis entry in [1] is “No specific lysis”.

Consider “HPV16 E728-36: control peptide in the ELISpot analysis (LNDSSEEED; UniProt P03129 28-36, looked up, fragment) [reference compound]”, for which the “IFN-γ ELISpot reaction” value in assay [2] is reported as “did not induce any IFN-γ secretion”.

In the case of “HPV18 E77-15: control peptide; HPV18 E77-15 epitope described by Rudolf MP et al. (2001) (TLQDIVLHL; UniProt P06788 7-15, looked up, fragment)”, the specific lysis entry in assay [1] is recorded as “No specific lysis”.

As to “NNGVCWHNQLFVTVVDTTRS [Q30, HPV18 L1 320-339]”, in assay [3] (peptide common to pools F and 4), the “T cell epitope assignment (TH1)” value was “contains a TH1 epitope”. For the same substance, the “proportion of reactive CD4-positive and IFNγ-positive T cells, confirmation experiment” value in assay [3] (pools F or 4 or 1 μg Q30/ml compared with each other, FIG. 14) was “comparable”. In addition, the Epitope type entry in assay [4] is “TH1”.

As for “PQRHTMLCMCCKCEARIKLV [Q49, HPV18 E7 56-75]”, the “T cell epitope assignment” value in [5] (conclusion from FIG. 16 lower part) is “H2k-restricted cytotoxic T cell epitope”. Besides, the “specific lysis of target cells (51Cr release)” value in assay [5] (peptide-loaded LKK cells, effector:target 20, FIG. 16 lower part) was “able to efficiently lyse”.

“TTYKNTNFKEYLRHGEEYDL [P33, HPV16 L1 353-372]”: the “proportion of CD8-positive T cells reactive on the basis of IFNγ expression” value in [6] (1 μg P33/ml, donor-identical BLCL, versus negative control, FIG. 10) was “markedly higher”. Moreover, the “T cell epitope assignment” value is on record as “contains a cytotoxic T cell epitope” in assay [6] (conclusion from FIG. 10) and “H2b-restricted cytotoxic T cell epitope” in assay [7] (conclusion from FIG. 2). The “specific lysis of target cells (51Cr release)” value in [7] (10 μg P33/ml, effector:target 20, T cells stimulated with peptides P1-P43, FIG. 2) is given as “able to efficiently lyse”.

“VDLLCHEQLSDSEEENDEID [Q46, HPV18 E7 23-42]”: the Epitope type entry in [4] is “TH1”. The “proportion of reactive CD4-positive and IFNγ-positive T cells” value in [8] (1 μg peptide/ml, donor-identical BLCL, FIG. 12 top left) was “markedly higher than in the negative control”. The “proportion of CD8-positive and IL4-positive cells” value in assay [8] (1 μg peptide/ml, FIG. 12 lower right) was “low, and comparable to the negative control”. For the same substance, the “T cell epitope assignment (TH1)” value in [8] (conclusion from FIG. 12 top left) and in [9] was “contain a TH1 epitope” each time. Moreover, in [10], the “T cell epitope assignment” value is “contain T helper epitopes”.
